These results are taken from PubChem BioAssay AID1963984 (Molecular Pharmacology Branch, DTP, NCI, 2024).

SMILES strings stand for the structures.
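Further: spheroids exposed to agents for seven days before readout; percent viability relative to DMSO vehicle control taken as 100%.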

The test system of the first assay is 233499-124-R-J3-PDC spheroids with HUVEC/MSC, viability. The assay is described as follows: Anticancer human tumor 233499-124-R-J3-PDC patient-derived colon adenocarcinoma cell line growth inhibition [PI3K]. To be noted: second compound 0.316 µM; first compound 0.1 µM; hits give low values. An outline of the steps: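 Complex 3D spheroids (cancer cells + endothelial HUVEC + mesenchymal stem cells); drug pairs of targeted agent x inavolisib/alpelisib/duvelisib/copanlisib; half-log series from ~Cmax, max 10 microM if Cmax unknown; endpoint viability.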
As a reminder, the viability, T/C is the result in the treated group divided by that in the control group, in per cent. In the case of `Cn1ncc(Cl)c1-c1cc(C(=O)NC(CN)Cc2cccc(F)c2)sc1Cl` (configuration not stated) + CC(Nc1ccc2c(c1)OCCn1cc(N3C(=O)OCC3C(F)F)nc1-2)C(N)=O, the viability, T/C is 94.3%.

In the case of `CCCS(=O)(=O)Nc1ccc(F)c(C(=O)c2c[nH]c3ncc(-c4ccc(Cl)cc4)cc23)c1F` + CC(Nc1ccc2c(c1)OCCn1cc(N3C(=O)OCC3C(F)F)nc1-2)C(N)=O, the viability, T/C was 66.6%.

Staying with this assay, now noted: second compound 0.316 µM; first compound 0.316 µM; hits give low values.
For `CCCS(=O)(=O)Nc1ccc(F)c(C(=O)c2c[nH]c3ncc(-c4ccc(Cl)cc4)cc23)c1F` + COc1c(OCCCN2CCOCC2)ccc2c3n(c(=NC(=O)c4cnc(N)nc4)nc12)CCN3, the viability, T/C was 38.2%.

Take `Cn1ncc(Cl)c1-c1cc(C(=O)NC(CN)Cc2cccc(F)c2)sc1Cl` (configuration not stated) + CC(Nc1ccc2c(c1)OCCn1cc(N3C(=O)OCC3C(F)F)nc1-2)C(N)=O: the viability, T/C was 61.5%.

With `CCCS(=O)(=O)Nc1ccc(F)c(C(=O)c2c[nH]c3ncc(-c4ccc(Cl)cc4)cc23)c1F` + CC(Nc1ccc2c(c1)OCCn1cc(N3C(=O)OCC3C(F)F)nc1-2)C(N)=O, the viability, T/C was 66.9%.

Still in this assay, the particulars now being: second compound 0.316 µM; first compound 1 µM; hits give low values.
Turning to `CCCS(=O)(=O)Nc1ccc(F)c(C(=O)c2c[nH]c3ncc(-c4ccc(Cl)cc4)cc23)c1F` + COc1c(OCCCN2CCOCC2)ccc2c3n(c(=NC(=O)c4cnc(N)nc4)nc12)CCN3, the viability, T/C was 27.2%.

`Cn1ncc(Cl)c1-c1cc(C(=O)NC(CN)Cc2cccc(F)c2)sc1Cl` (configuration not stated) + CC(Nc1ccc2c(c1)OCCn1cc(N3C(=O)OCC3C(F)F)nc1-2)C(N)=O: the viability, T/C was 55.2%.

For the compound `CCCS(=O)(=O)Nc1ccc(F)c(C(=O)c2c[nH]c3ncc(-c4ccc(Cl)cc4)cc23)c1F` + CC(Nc1ccc2c(c1)OCCn1cc(N3C(=O)OCC3C(F)F)nc1-2)C(N)=O, the viability, T/C was 69.2%.

Still in this assay, the particulars now being: second compound 0.316 µM; first compound 3.16 µM; hits give low values.
On to `CCCS(=O)(=O)Nc1ccc(F)c(C(=O)c2c[nH]c3ncc(-c4ccc(Cl)cc4)cc23)c1F` + COc1c(OCCCN2CCOCC2)ccc2c3n(c(=NC(=O)c4cnc(N)nc4)nc12)CCN3, for which the viability, T/C is 23.6%.

Regarding `Cn1ncc(Cl)c1-c1cc(C(=O)NC(CN)Cc2cccc(F)c2)sc1Cl` (configuration not stated) + CC(Nc1ccc2c(c1)OCCn1cc(N3C(=O)OCC3C(F)F)nc1-2)C(N)=O, the viability, T/C is 46.9%.

For `CCCS(=O)(=O)Nc1ccc(F)c(C(=O)c2c[nH]c3ncc(-c4ccc(Cl)cc4)cc23)c1F` + CC(Nc1ccc2c(c1)OCCn1cc(N3C(=O)OCC3C(F)F)nc1-2)C(N)=O, the viability, T/C is 54.5%.

Still in this assay, the particulars now being: second compound 0.316 µM; first compound 10 µM; hits give low values.
For the compound `CCCS(=O)(=O)Nc1ccc(F)c(C(=O)c2c[nH]c3ncc(-c4ccc(Cl)cc4)cc23)c1F` + COc1c(OCCCN2CCOCC2)ccc2c3n(c(=NC(=O)c4cnc(N)nc4)nc12)CCN3, the viability, T/C was 2.75%.

With `Cn1ncc(Cl)c1-c1cc(C(=O)NC(CN)Cc2cccc(F)c2)sc1Cl` (configuration not stated) + CC(Nc1ccc2c(c1)OCCn1cc(N3C(=O)OCC3C(F)F)nc1-2)C(N)=O, the viability, T/C is 19.8%.

Consider `CCCS(=O)(=O)Nc1ccc(F)c(C(=O)c2c[nH]c3ncc(-c4ccc(Cl)cc4)cc23)c1F` + CC(Nc1ccc2c(c1)OCCn1cc(N3C(=O)OCC3C(F)F)nc1-2)C(N)=O, for which the viability, T/C is 4.16%.

Staying with this assay, now noted: second compound 1 µM; first compound 0.0316 µM; hits give low values.
For the compound `CCCS(=O)(=O)Nc1ccc(F)c(C(=O)c2c[nH]c3ncc(-c4ccc(Cl)cc4)cc23)c1F` + COc1c(OCCCN2CCOCC2)ccc2c3n(c(=NC(=O)c4cnc(N)nc4)nc12)CCN3, the viability, T/C is 10.5%.

`Cn1ncc(Cl)c1-c1cc(C(=O)NC(CN)Cc2cccc(F)c2)sc1Cl` (configuration not stated) + CC(Nc1ccc2c(c1)OCCn1cc(N3C(=O)OCC3C(F)F)nc1-2)C(N)=O: the viability, T/C is 42.6%.

Take `CCCS(=O)(=O)Nc1ccc(F)c(C(=O)c2c[nH]c3ncc(-c4ccc(Cl)cc4)cc23)c1F` + CC(Nc1ccc2c(c1)OCCn1cc(N3C(=O)OCC3C(F)F)nc1-2)C(N)=O: the viability, T/C is 73%.

The same assay, now with this note: second compound 1 µM; first compound 0.1 µM; hits give low values.
For `CCCS(=O)(=O)Nc1ccc(F)c(C(=O)c2c[nH]c3ncc(-c4ccc(Cl)cc4)cc23)c1F` + COc1c(OCCCN2CCOCC2)ccc2c3n(c(=NC(=O)c4cnc(N)nc4)nc12)CCN3, the viability, T/C is 9.36%.

For `Cn1ncc(Cl)c1-c1cc(C(=O)NC(CN)Cc2cccc(F)c2)sc1Cl` (configuration not stated) + CC(Nc1ccc2c(c1)OCCn1cc(N3C(=O)OCC3C(F)F)nc1-2)C(N)=O, the viability, T/C was 61.8%.

Take `CCCS(=O)(=O)Nc1ccc(F)c(C(=O)c2c[nH]c3ncc(-c4ccc(Cl)cc4)cc23)c1F` + CC(Nc1ccc2c(c1)OCCn1cc(N3C(=O)OCC3C(F)F)nc1-2)C(N)=O: the viability, T/C was 45.4%.

The same assay, now with this note: second compound 1 µM; first compound 0.316 µM; hits give low values.
As to `CCCS(=O)(=O)Nc1ccc(F)c(C(=O)c2c[nH]c3ncc(-c4ccc(Cl)cc4)cc23)c1F` + COc1c(OCCCN2CCOCC2)ccc2c3n(c(=NC(=O)c4cnc(N)nc4)nc12)CCN3, the viability, T/C is 6.83%.

Consider `Cn1ncc(Cl)c1-c1cc(C(=O)NC(CN)Cc2cccc(F)c2)sc1Cl` (configuration not stated) + CC(Nc1ccc2c(c1)OCCn1cc(N3C(=O)OCC3C(F)F)nc1-2)C(N)=O, for which the viability, T/C was 67.2%.

For the compound `CCCS(=O)(=O)Nc1ccc(F)c(C(=O)c2c[nH]c3ncc(-c4ccc(Cl)cc4)cc23)c1F` + CC(Nc1ccc2c(c1)OCCn1cc(N3C(=O)OCC3C(F)F)nc1-2)C(N)=O, the viability, T/C is 54.9%.

Still in this assay, the particulars now being: second compound 1 µM; first compound 1 µM; hits give low values.
Consider `CCCS(=O)(=O)Nc1ccc(F)c(C(=O)c2c[nH]c3ncc(-c4ccc(Cl)cc4)cc23)c1F` + COc1c(OCCCN2CCOCC2)ccc2c3n(c(=NC(=O)c4cnc(N)nc4)nc12)CCN3, for which the viability, T/C is 18.9%.

For `Cn1ncc(Cl)c1-c1cc(C(=O)NC(CN)Cc2cccc(F)c2)sc1Cl` (configuration not stated) + CC(Nc1ccc2c(c1)OCCn1cc(N3C(=O)OCC3C(F)F)nc1-2)C(N)=O, the viability, T/C is 56%.

`CCCS(=O)(=O)Nc1ccc(F)c(C(=O)c2c[nH]c3ncc(-c4ccc(Cl)cc4)cc23)c1F` + CC(Nc1ccc2c(c1)OCCn1cc(N3C(=O)OCC3C(F)F)nc1-2)C(N)=O: the viability, T/C was 61%.

Still in this assay, the particulars now being: second compound 1 µM; first compound 3.16 µM; hits give low values.
Consider `CCCS(=O)(=O)Nc1ccc(F)c(C(=O)c2c[nH]c3ncc(-c4ccc(Cl)cc4)cc23)c1F` + COc1c(OCCCN2CCOCC2)ccc2c3n(c(=NC(=O)c4cnc(N)nc4)nc12)CCN3, for which the viability, T/C was 8.57%.

As for `Cn1ncc(Cl)c1-c1cc(C(=O)NC(CN)Cc2cccc(F)c2)sc1Cl` (configuration not stated) + CC(Nc1ccc2c(c1)OCCn1cc(N3C(=O)OCC3C(F)F)nc1-2)C(N)=O, the viability, T/C was 42.9%.

On to `CCCS(=O)(=O)Nc1ccc(F)c(C(=O)c2c[nH]c3ncc(-c4ccc(Cl)cc4)cc23)c1F` + CC(Nc1ccc2c(c1)OCCn1cc(N3C(=O)OCC3C(F)F)nc1-2)C(N)=O, for which the viability, T/C was 41.8%.

Staying with this assay, now noted: second compound 1 µM; first compound 10 µM; hits give low values.
As for `CCCS(=O)(=O)Nc1ccc(F)c(C(=O)c2c[nH]c3ncc(-c4ccc(Cl)cc4)cc23)c1F` + COc1c(OCCCN2CCOCC2)ccc2c3n(c(=NC(=O)c4cnc(N)nc4)nc12)CCN3, the viability, T/C was 1.66%.

For the compound `Cn1ncc(Cl)c1-c1cc(C(=O)NC(CN)Cc2cccc(F)c2)sc1Cl` (configuration not stated) + CC(Nc1ccc2c(c1)OCCn1cc(N3C(=O)OCC3C(F)F)nc1-2)C(N)=O, the viability, T/C is 14.3%.

For `CCCS(=O)(=O)Nc1ccc(F)c(C(=O)c2c[nH]c3ncc(-c4ccc(Cl)cc4)cc23)c1F` + CC(Nc1ccc2c(c1)OCCn1cc(N3C(=O)OCC3C(F)F)nc1-2)C(N)=O, the viability, T/C was 2.26%.
